Reference: ChEMBL document CHEMBL3045683, “Synthesis, characterisation and antimicrobial activities of novel 7,9-diphenyl-1,2,4-triaza-8-oxa-spiro[4.5]-decan-3-thiones” (2011)
Values after ≈ are worked out from the molar mass of the structure shown.

Experiments:
Assay type in all cases: functional
Staphylococcus aureus = assay: Antimicrobial activity against Staphylococcus aureus after 24 hr by two-fold serial dilution method
Candida albicans = assay: Antimicrobial activity against Candida albicans after 72 to 96 hr by two-fold serial dilution method
Pseudomonas aeruginosa = assay: Antimicrobial activity against Pseudomonas aeruginosa after 24 hr by two-fold serial dilution method
Escherichia coli = assay: Antimicrobial activity against Escherichia coli after 24 hr by two-fold serial dilution method
Aspergillus niger = assay: Antimicrobial activity against Aspergillus niger after 72 to 96 hr by two-fold serial dilution method
Aspergillus flavus = assay: Antimicrobial activity against Aspergillus flavus after 72 to 96 hr by two-fold serial dilution method
Rhizopus = assay: Antimicrobial activity against Rhizopus sp. after 72 to 96 hr by two-fold serial dilution method
Salmonella typhi = assay: Antimicrobial activity against Salmonella enterica subsp. enterica serovar Typhi after 24 hr by two-fold serial dilution method

Row | SMILES | MIC (Staphylococcus aureus) | MIC (Candida albicans) | MIC (Pseudomonas aeruginosa) | MIC (Escherichia coli) | MIC (Aspergillus niger) | MIC (Aspergillus flavus) | MIC (Rhizopus) | MIC (Salmonella typhi)
1 | CC1C(c2ccccc2)OC(c2ccccc2)CC12NC(=S)NN2c1ccccc1 (centres undefined) | 25 µg/mL (≈ 60.2 µM) | 50 µg/mL (≈ 120 µM) | 25 µg/mL (≈ 60.2 µM) | 12.5 µg/mL (≈ 30.1 µM) | 25 µg/mL (≈ 60.2 µM) | 12.5 µg/mL (≈ 30.1 µM) | 25 µg/mL (≈ 60.2 µM) | 25 µg/mL (≈ 60.2 µM)
2 | S=C1NN(c2ccccc2)C2(CC(c3ccccc3)OC(c3ccccc3)C2)N1 (centres undefined) | 50 µg/mL (≈ 125 µM) | 50 µg/mL (≈ 125 µM) | 25 µg/mL (≈ 62.3 µM) | 50 µg/mL (≈ 125 µM) | 50 µg/mL (≈ 125 µM) | 12.5 µg/mL (≈ 31.1 µM) | 12.5 µg/mL (≈ 31.1 µM) | 50 µg/mL (≈ 125 µM)
3 | C[C@@H]1[C@H](O)[C@@H](C)/C=C/C=C/C=C/C=C/C=C/C=C/C=C/[C@H](O[C@@H]2O[C@H](C)[C@@H](O)[C@H](N)[C@@H]2O)C[C@@H]2O[C@](O)(C[C@@H](O)C[C@@H](O)[C@H](O)CC[C@@H](O)C[C@@H](O)CC(=O)O[C@H]1C)C[C@H](O)[C@H]2C(=O)O [AMPHOTERICIN B] |  | 25 µg/mL (≈ 27.1 µM) |  |  | 50 µg/mL (≈ 54.1 µM) | 50 µg/mL (≈ 54.1 µM) | 25 µg/mL (≈ 27.1 µM) | 
4 | O=C(O)c1cn(C2CC2)c2cc(N3CCNCC3)c(F)cc2c1=O [CIPROFLOXACIN] |  |  |  | 25 µg/mL (≈ 75.4 µM) |  |  |  | 50 µg/mL (≈ 151 µM)
5 | S=C1NNC2(CC(c3ccccc3)OC(c3ccccc3)C2)N1 (centres undefined) | 12.5 µg/mL (≈ 38.4 µM) | 200 µg/mL (≈ 615 µM) | 100 µg/mL (≈ 307 µM) | 50 µg/mL (≈ 154 µM) | 50 µg/mL (≈ 154 µM) | 100 µg/mL (≈ 307 µM) | 100 µg/mL (≈ 307 µM) | 25 µg/mL (≈ 76.8 µM)
6 | CC1C(c2ccccc2)OC(c2ccccc2)CC12NNC(=S)N2 (centres undefined) | 25 µg/mL (≈ 73.6 µM) | 100 µg/mL (≈ 295 µM) | 50 µg/mL (≈ 147 µM) | 100 µg/mL (≈ 295 µM) | 50 µg/mL (≈ 147 µM) | 50 µg/mL (≈ 147 µM) | 25 µg/mL (≈ 73.6 µM) | 100 µg/mL (≈ 295 µM)
7 | CCC1C(c2ccccc2)OC(c2ccccc2)CC12NC(=S)NN2c1ccccc1 (centres undefined) | 25 µg/mL (≈ 58.2 µM) | 25 µg/mL (≈ 58.2 µM) | 12.5 µg/mL (≈ 29.1 µM) | 12.5 µg/mL (≈ 29.1 µM) | 25 µg/mL (≈ 58.2 µM) | 50 µg/mL (≈ 116 µM) | 12.5 µg/mL (≈ 29.1 µM) | 25 µg/mL (≈ 58.2 µM)
8 | CCC1C(c2ccccc2)OC(c2ccccc2)CC12NNC(=S)N2 (centres undefined) | 50 µg/mL (≈ 141 µM) | 100 µg/mL (≈ 283 µM) | 100 µg/mL (≈ 283 µM) | 100 µg/mL (≈ 283 µM) | 25 µg/mL (≈ 70.7 µM) | 50 µg/mL (≈ 141 µM) | 100 µg/mL (≈ 283 µM) | 25 µg/mL (≈ 70.7 µM)
